Here are results for five compounds from US20110098352A1, “N,N-DISUBSTITUTED AMINOALKYLBIPHENYL ANTAGONISTS OF PROSTAGLANDIN D2 RECEPTORS” (AMIRA PHARMACEUTICALS, INC., priority 2008, published 2011).

Test [1] addresses T1, recombinant human CRTH2 receptor (Homo sapiens, UniProt Q9Y5Y4).
T1 construct: expressed in transfected cells
T1 sequence (Q9Y5Y4 1-395): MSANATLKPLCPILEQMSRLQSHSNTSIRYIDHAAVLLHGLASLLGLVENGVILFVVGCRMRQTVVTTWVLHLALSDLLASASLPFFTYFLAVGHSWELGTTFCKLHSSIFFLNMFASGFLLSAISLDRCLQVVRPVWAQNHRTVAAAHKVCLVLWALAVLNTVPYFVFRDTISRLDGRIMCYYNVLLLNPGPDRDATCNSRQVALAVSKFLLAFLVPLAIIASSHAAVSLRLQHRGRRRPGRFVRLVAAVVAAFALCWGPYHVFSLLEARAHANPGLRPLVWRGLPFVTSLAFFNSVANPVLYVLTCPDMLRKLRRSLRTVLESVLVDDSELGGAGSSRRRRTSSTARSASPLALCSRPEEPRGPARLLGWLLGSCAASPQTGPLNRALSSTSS
Briefly: GTPγS binding assay. The conditions noted are these: +HSA; CHO cell membranes, 80 nM PGD2; read-out: hDP2 GTPγS μM (+HSA). It is filed as biochemical. The procedure:
The ability of a compound to inhibit binding of GTP to DP2 is assessed via a membrane GTPγS assay. CHO cells stably expressing the recombinant human CRTH2 receptor are resuspended in 10 mM Hepes, 7.4 containing 1 mM DTT, lysed and centrifuged at 75,000×g to pellet the membranes. The membranes are resuspended in 10 mM Hepes, 7.4 containing 1 mM DTT and 10% glycerol. […] The reactions are terminated by rapid filtration through Whatman GF/B glass fibre filter plates. The filter plates are washed 3 times with 1 ml cold Assay Buffer and dried. Scintillant is then added to the plates and the radioactivity retained on the filters is determined on a Packard TopCount (Perkin Elmer). Specific binding is determined as total radioactive binding minus non-specific binding in the absence of the ligand (80 nM PGD2). IC50s were determined using Graphpad prism analysis of drug titration curves.
On the technique in general: GTPγS is a poorly hydrolysed GTP analogue; its binding reports G protein activation.

The target of the next test is T2, human DP1 receptor (Homo sapiens, UniProt Q13258).
T2 construct: tissue Biological Specialty Corporation; host or cells: human platelets, membranes
T2 sequence (Q13258 1-359): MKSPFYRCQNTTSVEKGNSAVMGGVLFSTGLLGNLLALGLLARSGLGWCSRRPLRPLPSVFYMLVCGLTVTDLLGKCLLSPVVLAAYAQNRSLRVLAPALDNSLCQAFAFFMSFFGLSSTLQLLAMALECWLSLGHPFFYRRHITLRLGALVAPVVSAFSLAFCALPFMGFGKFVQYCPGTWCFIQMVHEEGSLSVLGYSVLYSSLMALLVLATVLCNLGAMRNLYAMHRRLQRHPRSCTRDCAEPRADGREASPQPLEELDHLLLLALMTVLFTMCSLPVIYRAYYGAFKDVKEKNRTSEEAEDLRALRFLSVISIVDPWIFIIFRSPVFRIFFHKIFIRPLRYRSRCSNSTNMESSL
Briefly: DP1 radioligand membrane binding assay using [3H]BWA868C. Conditions: [3H]BWA868C binding, human platelet membranes; read-out: hDP1.

The target of another test is T3, human DP2 receptor (Homo sapiens, UniProt Q9Y5Y4).
T3 construct: expressed in transfected cells
T3 sequence (Q9Y5Y4 1-395): T1 sequence (Q9Y5Y4 1-395)
Put plainly: DP2/CRTH2 radioligand binding assay using [3H]PGD2. The conditions noted are these: [3H]PGD2 binding, membranes of HEK293 cells expressing recombinant human DP2; read-out: hDP2. A digest of the protocol:
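HEK293 membranes with stable recombinant human DP2, incubated with 1 nM [3H]PGD2 and compound 60 min at room temperature in pH 7.4 HEPES/MnCl2/EDTA buffer, with or without 0.2% human serum albumin.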

As for `CN(Cc1cc(C(F)(F)F)ccc1-c1cc(CC(=O)O)ccc1F)C(=O)OCc1ccccc1` [Compound 1-29, {2′-[(Benzyloxycarbonyl-methyl-amino)-methyl]-6-fluoro-4′-trifluoromethyl-biphenyl-3-yl}-acetic acid], the figures for the IC50 (in test [1]; at human DP1 receptor; on human DP2 receptor) were less than 0.3 µM, more than 1000 nM and less than 300 nM, respectively.

On to `COc1ccc(CC(=O)O)cc1-c1ccc(C(F)(F)F)cc1CN(C(=O)OCc1ccccc1)C1CCCC1` [Compound 1-35, {2′-[(Benzyloxycarbonyl-cyclopentyl-amino)-methyl]-6-methoxy-4′-trifluoromethyl-biphenyl-3-yl}-acetic acid], for which the IC50 was less than 0.3 µM in test [1], 300 to 1000 nM on human DP1 receptor and less than 300 nM at human DP2 receptor.

As for `CCN(Cc1cc(C(F)(F)F)ccc1-c1cc(CC(=O)O)ccc1OC)C(=O)COC` [Compound 1-46, (2′-{[Ethyl-(2-methoxy-acetyl)-amino]-methyl}-6-methoxy-4′-trifluoromethyl-biphenyl-3-yl)-acetic acid], the IC50 in test [1] is less than 0.3 µM; on human DP1 receptor, more than 1000 nM; on human DP2 receptor, less than 300 nM.

As to `COc1ccc(CC(=O)O)cc1-c1ccc(C(F)(F)F)cc1CN(C)C(=O)OCc1ccccc1` [Compound 1-27, {2′-[(Benzyloxycarbonyl-methyl-amino)-methyl]-6-methoxy-4′-trifluoromethyl-biphenyl-3-yl)-acetic acid], the IC50 in test [1] is less than 0.3 µM; on human DP1 receptor, more than 1000 nM; at human DP2 receptor, less than 300 nM.

For `CCN(Cc1cc(C(F)(F)F)ccc1-c1cc(CC(=O)O)ccc1OC)C(=O)C(C)Oc1ccccc1` (stereo not drawn) [Compound 1-45, (2′-{[Ethyl-(2-phenoxy-propionyl)-amino]-methyl}-6-methoxy-4′-trifluoromethyl-biphenyl-3-yl)-acetic acid], the IC50 is less than 0.3 µM in test [1], more than 1000 nM at human DP1 receptor and less than 300 nM on human DP2 receptor.
